Like-named read-outs stand apart in the source and are kept apart here.
Columns and labels:
Type in all cases: biochemical
K-Ras G13C = K-Ras G13C (Homo sapiens (Human), UniProt P01116+P62937, G13C); test: Ras-Raf (BRAF RBD) disruption / FRET / MOA assay, KRAS G13C; settings: KRAS G13C; Ras-Raf disruption/FRET/MOA assay; read-out: IC50* KRAS G13C FRET data
How it was run: (§1)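 TR-FRET read-out: a drop in ratio relative to DMSO wells marks disruption of the Ras:RAF complex, reported as IC50. Compounds (3-fold series, 10 points, top 30 μM final) incubated 3 h at 25° C before Eu-anti-His 10 nM and APC-anti-GST 50 nM, 1.5 h more.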

KRAS G12S = KRAS G12S (Homo sapiens (Human), UniProt P01116+P62937, G12S); test: Ras-Raf (BRAF RBD) disruption / FRET / MOA assay, KRAS G12S; settings: Ras-Raf disruption/FRET/MOA assay; class symbols; read-out: KRAS G12S FRET data IC50
How it was run: as §1

KRAS G12D = KRAS G12D (Homo sapiens (Human), UniProt P01116+P62937, G12D); test: Ras-Raf (BRAF RBD) disruption / FRET / MOA assay, KRAS G12D; settings: Ras-Raf disruption/FRET/MOA assay; class symbols; read-out: KRAS G12D FRET data IC50
How it was run: as §1

KRAS WT = KRAS WT (Homo sapiens (Human), UniProt P01116+P62937); test: Ras-Raf (BRAF RBD) disruption / FRET / MOA assay, KRAS WT; settings: read-out: IC50* KRAS WT FRET data
How it was run: as §1

KRAS Q61H = KRAS Q61H (Homo sapiens (Human), UniProt P01116+P62937, Q61H); test: Ras-Raf (BRAF RBD) disruption / FRET / MOA assay, KRAS Q61H; settings: class symbols
How it was run: (§2)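 Compounds were tested as a 10-point 3-fold dilution series from 30 μM final for their ability to drive ternary complex formation between nucleotide-loaded Ras and cyclophilin A, displacing the BRAF RBD. After 3 h at 25° C., anti-His Eu-W1024 (10 nM) and anti-GST allophycocyanin (50 nM) were added for 1.5 h. A TR-FRET ratio decrease versus DMSO gave IC50.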

NRAS G12C = NRAS G12C (Homo sapiens (Human), UniProt P01111+P62937, G12C); test: Ras-Raf (BRAF RBD) disruption / FRET / MOA assay, NRAS G12C
How it was run: as §1

NRAS Q61R = NRAS Q61R (Homo sapiens (Human), UniProt P01111+P62937, Q61R); test: Ras-Raf (BRAF RBD) disruption / FRET / MOA assay, NRAS Q61R
How it was run: as §2

NRAS Q61K = NRAS Q61K (Homo sapiens (Human), UniProt P01111+P62937, Q61K); test: Ras-Raf (BRAF RBD) disruption / FRET / MOA assay, NRAS Q61K
How it was run: as §2

NRAS WT = NRAS WT (Homo sapiens (Human), UniProt P01111+P62937); test: Ras-Raf (BRAF RBD) disruption / FRET / MOA assay, NRAS WT
How it was run: as §2

[1] = Ras-Raf disruption/FRET/MOA assay, read-out: KRAS Q61H FRET data IC50
[2] = read-out: IC50* NRAS G12C FRET data
[3] = NRAS Q61R, Ras-Raf disruption/FRET/MOA assay, read-out: IC50* NRAS Q61R FRET data
[4] = NRAS Q61K, Ras-Raf disruption/FRET/MOA assay, read-out: IC50* NRAS Q61K FRET data
[5] = read-out: IC50* NRAS WT FRET data

Chain of NRAS Q61K (P01111 whole entry Q61K): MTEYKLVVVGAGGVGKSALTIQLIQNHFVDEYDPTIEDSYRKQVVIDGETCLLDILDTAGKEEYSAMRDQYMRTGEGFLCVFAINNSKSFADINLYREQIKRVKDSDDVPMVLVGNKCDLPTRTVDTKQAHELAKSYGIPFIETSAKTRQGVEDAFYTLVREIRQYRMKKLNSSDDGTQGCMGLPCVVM
Chain of NRAS Q61K (P62937 whole entry): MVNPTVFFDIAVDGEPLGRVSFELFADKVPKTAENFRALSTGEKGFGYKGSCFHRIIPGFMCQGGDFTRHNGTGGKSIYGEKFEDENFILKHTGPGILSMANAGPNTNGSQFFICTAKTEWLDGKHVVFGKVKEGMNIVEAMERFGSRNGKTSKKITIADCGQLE
Chain of KRAS G12S (P01116-2 other isoform, or with tags, fused parts or gaps G12S): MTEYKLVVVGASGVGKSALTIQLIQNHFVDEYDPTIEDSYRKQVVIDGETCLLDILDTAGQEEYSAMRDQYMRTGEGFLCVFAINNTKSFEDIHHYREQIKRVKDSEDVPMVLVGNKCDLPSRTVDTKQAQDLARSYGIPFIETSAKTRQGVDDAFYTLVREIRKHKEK
Chain of KRAS G12S (P62937 whole entry): as the sequence (P62937 whole entry) above
Chain of KRAS WT (P01116-2 other isoform, or with tags, fused parts or gaps): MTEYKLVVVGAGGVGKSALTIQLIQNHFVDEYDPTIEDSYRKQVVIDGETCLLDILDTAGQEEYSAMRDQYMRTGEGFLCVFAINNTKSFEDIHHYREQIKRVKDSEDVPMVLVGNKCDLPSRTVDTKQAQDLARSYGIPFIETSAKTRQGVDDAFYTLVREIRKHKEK
Chain of KRAS WT (P62937 whole entry): as the sequence (P62937 whole entry) above
Chain of K-Ras G13C (P01116-2 other isoform, or with tags, fused parts or gaps G13C): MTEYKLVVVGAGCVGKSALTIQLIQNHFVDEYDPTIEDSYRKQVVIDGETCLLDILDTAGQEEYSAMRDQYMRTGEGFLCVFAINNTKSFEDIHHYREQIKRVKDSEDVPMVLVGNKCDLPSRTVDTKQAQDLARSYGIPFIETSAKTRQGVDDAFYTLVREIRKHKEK
Chain of K-Ras G13C (P62937 whole entry): as the sequence (P62937 whole entry) above
Chain of NRAS G12C (P01111 whole entry G12C): as the sequence (P01111 whole entry Q61K) above, with G12C, K61Q counted along it
Chain of NRAS G12C (P62937 whole entry): as the sequence (P62937 whole entry) above
Chain of KRAS Q61H (P01116-2 other isoform, or with tags, fused parts or gaps Q61H): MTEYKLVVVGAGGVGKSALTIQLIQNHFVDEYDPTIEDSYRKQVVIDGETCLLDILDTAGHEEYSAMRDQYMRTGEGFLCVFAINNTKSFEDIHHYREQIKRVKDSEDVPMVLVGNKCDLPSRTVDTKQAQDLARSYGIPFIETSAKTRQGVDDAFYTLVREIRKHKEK
Chain of KRAS Q61H (P62937 whole entry): as the sequence (P62937 whole entry) above
Chain of KRAS G12D (P01116-2 other isoform, or with tags, fused parts or gaps G12D): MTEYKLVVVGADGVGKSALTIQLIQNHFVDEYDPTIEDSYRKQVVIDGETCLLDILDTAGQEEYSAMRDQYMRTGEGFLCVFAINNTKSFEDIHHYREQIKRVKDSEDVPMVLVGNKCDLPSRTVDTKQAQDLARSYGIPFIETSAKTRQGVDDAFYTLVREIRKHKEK
Chain of KRAS G12D (P62937 whole entry): as the sequence (P62937 whole entry) above
Chain of NRAS WT (P01111 whole entry): as the sequence (P01111 whole entry Q61K) above, with K61Q counted along it
Chain of NRAS WT (P62937 whole entry): as the sequence (P62937 whole entry) above
Chain of NRAS Q61R (P01111 whole entry Q61R): as the sequence (P01111 whole entry Q61K) above, with K61R counted along it
Chain of NRAS Q61R (P62937 whole entry): as the sequence (P62937 whole entry) above

SMILES	IC50 (K-Ras G13C)	IC50 (KRAS G12S)	IC50 (KRAS G12D)	IC50 (KRAS WT)	IC50 (KRAS Q61H; [1])	IC50 (NRAS G12C; [2])	IC50 (NRAS Q61R; [3])	IC50 (NRAS Q61K; [4])	IC50 (NRAS WT; [5])	IC50 (KRAS Q61H; KRAS Q61H FRET data IC50, Ras-Raf disruption/FRET/MOA assay)	IC50 (NRAS G12C; IC50* NRAS G12C FRET data)	IC50 (NRAS Q61R)	IC50 (NRAS Q61K)	IC50 (NRAS WT; IC50* NRAS WT FRET data)
C=CC(=O)N1CC[C@H]2[C@@H]1CN2C(=O)N(C)[C@H](C(=O)N[C@H]1Cc2nc(cs2)-c2ccc3c(c2)c(c(-c2cccnc2[C@H](C)OC)n3CC)CC(C)(C)COC(=O)[C@@H]2CCCN(N2)C1=O)C(C)C (atropisomer, axis not shown) [Example A547]	100 to 1000 nM	1000 to 10000 nM	1000 to 10000 nM	100 to 1000 nM	100 to 1000 nM	100 to 1000 nM	1000 to 10000 nM	100 to 1000 nM	100 to 1000 nM	–	–	–	–	–
CCn1c(-c2cccnc2[C@H](C)OC)c2c3cc(ccc31)-c1cccc(c1)C[C@H](NC(=O)[C@H](C(C)C)N1CC[C@@]3(CCN(C(=O)C#C[C@@H]4COCCN4C)C3)C1=O)C(=O)N1CCC[C@H](N1)C(=O)OCC(C)(C)C2 (atropisomer, axis not shown) [Example A549]	100 to 1000 nM	1000 to 10000 nM	> 10000 nM	1000 to 10000 nM	–	–	–	–	–	100 to 1000 nM	10 to 100 nM	1000 to 10000 nM	1000 to 10000 nM	1000 to 10000 nM
CCn1c(-c2cccnc2[C@H](C)OC)c2c3cc(ccc31)-c1cccc(c1)C[C@H](NC(=O)[C@H](C(C)C)N1CC[C@]3(CCN(C(=O)C#C[C@@]4(N(C)C)CCOC4)C3)C1=O)C(=O)N1CCC[C@H](N1)C(=O)OCC(C)(C)C2 (atropisomer, axis not shown) [Example A560]	100 to 1000 nM	100 to 1000 nM	1000 to 10000 nM	1000 to 10000 nM	100 to 1000 nM	10 to 100 nM	1000 to 10000 nM	1000 to 10000 nM	1000 to 10000 nM	–	–	–	–	–
C=CC(=O)N1C[C@@H]2CN(C(=O)N(C)[C@H](C(=O)N[C@H]3Cc4nc(cs4)-c4ccc5c(c4)c(c(-c4cccnc4[C@H](C)OC)n5CC)CC(C)(C)COC(=O)[C@@H]4CCCN(N4)C3=O)C(C)C)[C@@H]2C1 (atropisomer, axis not shown) [Example A561]	100 to 1000 nM	1000 to 10000 nM	1000 to 10000 nM	1000 to 10000 nM	100 to 1000 nM	100 to 1000 nM	1000 to 10000 nM	100 to 1000 nM	1000 to 10000 nM	–	–	–	–	–
C=CC(=O)N1CCO[C@H]2CN(C(=O)N(C)[C@H](C(=O)N[C@H]3CC4=NN=C(O4)c4ccc5c(c4)c(c(-c4cccnc4[C@H](C)OC)n5CC(F)(F)F)CC(C)(C)COC(=O)[C@@H]4CCCN(N4)C3=O)C(C)C)C[C@H]21 (atropisomer, axis not shown) [Example A576]	100 to 1000 nM	> 10000 nM	> 10000 nM	1000 to 10000 nM	1000 to 10000 nM	100 to 1000 nM	> 10000 nM	1000 to 10000 nM	1000 to 10000 nM	–	–	–	–	–
CO[C@@H](C)c1ncccc1-c1c2c3cc(ccc3n1CC(F)(F)F)-c1nc(co1)C[C@H](NC(=O)[C@H](C(C)C)N(C)C(=O)C1(F)CCN(C(=O)C#CC(C)(C)N(C)C)CC1)C(=O)N1CCC[C@H](N1)C(=O)OCC(C)(C)C2 (atropisomer, axis not shown) [Example A578]	10 to 100 nM	100 to 1000 nM	100 to 1000 nM	100 to 1000 nM	10 to 100 nM	< 10 nM	100 to 1000 nM	100 to 1000 nM	100 to 1000 nM	–	–	–	–	–
CCn1c(-c2cccnc2[C@H](C)OC)c2c3cc(ccc31)-c1cccc(c1)C[C@H](NC(=O)[C@@H](CO[C@H]1CCN(C(=O)C#CC(C)(C)N(C)C)C1)C(C)C)C(=O)N1CCC[C@H](N1)C(=O)OCC(C)(C)C2 (atropisomer, axis not shown) [Example A585]	1000 to 10000 nM	1000 to 10000 nM	> 10000 nM	1000 to 10000 nM	1000 to 10000 nM	10 to 100 nM	> 10000 nM	> 10000 nM	1000 to 10000 nM	–	–	–	–	–
CCn1c(-c2cccnc2[C@H](C)OC)c2c3cc(ccc31)C1=CCCN(C1)C[C@H](NC(=O)[C@H](C(C)C)N(C)C(=O)C1(F)CCN(C(=O)C#CC(C)(C)N(C)C)CC1)C(=O)N1CCC[C@H](N1)C(=O)OCC(C)(C)C2 (atropisomer, axis not shown) [Example A591]	10 to 100 nM	100 to 1000 nM	1000 to 10000 nM	100 to 1000 nM	100 to 1000 nM	< 10 nM	100 to 1000 nM	1000 to 10000 nM	100 to 1000 nM	–	–	–	–	–
CCn1c(-c2cccnc2[C@H](C)OC)c2c3cc(ccc31)-c1cccc(c1)C[C@H](NC(=O)[C@@H](COC1CN(C(=O)C#CC(C)(C)N(C)C(C)C)C1)C(C)C)C(=O)N1CCC[C@H](N1)C(=O)OCC(C)(C)C2 (atropisomer, axis not shown) [Example A599]	1000 to 10000 nM	> 10000 nM	> 10000 nM	> 10000 nM	> 10000 nM	10 to 100 nM	> 10000 nM	> 10000 nM	> 10000 nM	–	–	–	–	–
CO[C@@H](C)c1ncccc1-c1c2c3cc(ccc3n1CC(F)(F)F)-c1cccc(c1)CN(NC(=O)[C@@H](COC1CN(C(=O)C#CC(C)(C)N(C)C)C1)C(C)C)C(=O)N1CCC[C@H](N1)C(=O)OCC(C)(C)C2 (atropisomer, axis not shown) [Example A601]	100 to 1000 nM	1000 to 10000 nM	> 10000 nM	1000 to 10000 nM	1000 to 10000 nM	< 10 nM	1000 to 10000 nM	1000 to 10000 nM	1000 to 10000 nM	–	–	–	–	–
CO[C@@H](C)c1ncccc1-c1c2c3cc(ccc3n1CC(F)(F)F)-c1csc(n1)C[C@H](NC(=O)[C@H](C(C)C)N(C)C(=O)N1CCC3(CC1)CN(C(=O)/C=C/CF)C3)C(=O)N1CCC[C@H](N1)C(=O)OCC(C)(C)C2 (atropisomer, axis not shown) [Example A602]	10 to 100 nM	10 to 100 nM	100 to 1000 nM	10 to 100 nM	10 to 100 nM	10 to 100 nM	10 to 100 nM	10 to 100 nM	10 to 100 nM	–	–	–	–	–
C=CC(=O)N1CCOC2(CCN(C(=O)N(C)[C@H](C(=O)N[C@H]3Cc4nc(n(C)n4)-c4ccc5c(c4)c(c(-c4cccnc4[C@H](C)OC)n5CC(F)(F)F)CC(C)(C)COC(=O)[C@@H]4CCCN(N4)C3=O)C(C)C)CC2)C1 (atropisomer, axis not shown) [Example A606]	10 to 100 nM	100 to 1000 nM	1000 to 10000 nM	100 to 1000 nM	10 to 100 nM	100 to 1000 nM	100 to 1000 nM	100 to 1000 nM	100 to 1000 nM	–	–	–	–	–
C=CC(=O)N1CC2(C1)OCCN2C(=O)N(C)[C@H](C(=O)N[C@H]1Cc2nc(cs2)-c2ccc3c(c2)c(c(-c2cccnc2[C@H](C)OC)n3CC)CC(C)(C)COC(=O)[C@@H]2CCCN(N2)C1=O)C(C)C (atropisomer, axis not shown) [Example A620]	100 to 1000 nM	100 to 1000 nM	1000 to 10000 nM	100 to 1000 nM	10 to 100 nM	< 10 nM	100 to 1000 nM	10 to 100 nM	100 to 1000 nM	–	–	–	–	–
CCn1c(-c2cccnc2[C@H](C)OC)c2c3cc(ccc31)-c1cccc(n1)C[C@H](NC(=O)[C@H](C(C)C)N(C)C(=O)N1CCC13CN(C(=O)C#CC(C)(C)N(C)C)C3)C(=O)N1CCC[C@H](N1)C(=O)OCC(C)(C)C2 (atropisomer, axis not shown) [Example A623]	1000 to 10000 nM	1000 to 10000 nM	1000 to 10000 nM	1000 to 10000 nM	100 to 1000 nM	100 to 1000 nM	1000 to 10000 nM	100 to 1000 nM	1000 to 10000 nM	–	–	–	–	–
CCn1c(-c2cccnc2[C@H](C)OC)c2c3cc(ccc31)-c1csc(n1)C[C@H](NC(=O)C[C@H](C)OC1CN(C(=O)C#CC(C)(C)N(C)C)C1)C(=O)N1CCC[C@H](N1)C(=O)OCC(C)(C)C2 (atropisomer, axis not shown) [Example A637]	1000 to 10000 nM	1000 to 10000 nM	> 10000 nM	1000 to 10000 nM	1000 to 10000 nM	10 to 100 nM	> 10000 nM	1000 to 10000 nM	1000 to 10000 nM	–	–	–	–	–

Reference: patent publication US11566007B2, “Ras inhibitors” (Revolution Medicines, Inc., priority 2019, dated 2023)
